Active and inactive are the calls of the source. No cut-off for these calls is given here.
What was measured:
PANC-1 [1] = assay: Cytotoxicity against human PANC-1 cells assessed as inhibition of cell growth incubated for 72 hrs by SRB assay; format: functional, cell-based; conditions: PANC-1, 72 h
[2] = Cytotoxicity against human MRC5 cells assessed as inhibition of cell growth incubated for 72 hrs by SRB assay; format: toxicity, cell-based
[3] = Cytotoxicity against HPDE6c7 cells assessed as inhibition of cell growth incubated for 72 hrs by SRB assay; format: toxicity, cell-based; conditions: human
[4] = system: Gemcitabine-resistant PANC-1; assay: Cytotoxicity against human Gemcitabine-resistant PANC-1 cells assessed as inhibition of cell growth incubated for 72 hrs by SRB assay; format: functional, cell-based; conditions: Gemcitabine-resistant PANC-1, 72 h
[5] = target: T1, Protein kinase C beta type (Homo sapiens, UniProt P05771); assay: Inhibition of recombinant full length N-terminal GST-tagged human PKCbeta1 expressed in baculovirus infected Sf9 insect cells using ERMRPRKRQGSVRRRV as substrate incubated for 60 mins in presence of ATP by ADP-glo reagent based luminometric analysis
[6] = target: T1, Protein kinase C beta type; assay: Binding affinity to PKCbeta1 in human Gemcitabine-resistant PANC-1 cells at 10 uM incubated for 1 hrs by streptavidin-biotin pull down assay; format: cell-based
Target sequence in this assay (P05771 2-671 limits assumed): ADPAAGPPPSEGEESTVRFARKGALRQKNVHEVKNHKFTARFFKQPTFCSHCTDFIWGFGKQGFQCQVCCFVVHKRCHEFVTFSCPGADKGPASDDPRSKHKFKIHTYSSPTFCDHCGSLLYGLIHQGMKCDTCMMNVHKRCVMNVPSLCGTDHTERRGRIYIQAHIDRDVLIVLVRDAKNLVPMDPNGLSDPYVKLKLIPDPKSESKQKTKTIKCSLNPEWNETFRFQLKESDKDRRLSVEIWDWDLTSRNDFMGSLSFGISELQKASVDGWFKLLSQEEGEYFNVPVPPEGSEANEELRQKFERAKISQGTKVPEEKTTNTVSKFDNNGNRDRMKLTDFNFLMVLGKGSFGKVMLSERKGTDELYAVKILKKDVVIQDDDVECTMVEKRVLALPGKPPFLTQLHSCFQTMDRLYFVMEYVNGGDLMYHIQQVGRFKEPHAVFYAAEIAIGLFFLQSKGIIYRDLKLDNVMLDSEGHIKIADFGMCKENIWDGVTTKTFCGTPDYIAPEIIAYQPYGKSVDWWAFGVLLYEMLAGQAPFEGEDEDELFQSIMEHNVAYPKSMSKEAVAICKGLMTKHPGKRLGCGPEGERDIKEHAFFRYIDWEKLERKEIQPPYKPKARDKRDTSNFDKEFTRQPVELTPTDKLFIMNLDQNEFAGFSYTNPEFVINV

[7] = Selectivity ratio of IC50 for cytotoxicity against human Gemcitabine-resistant PANC-1 cells assessed as inhibition of cell growth to IC50 for cytotoxicity against human PANC-1 cells assessed as inhibition of cell growth; format: functional
PANC-1 [8] = assay: Antiproliferative activity against human PANC-1 cells transfected with Myc-DDK tagged pCMV6-PKCbeta1 assessed as reduction in cell viability at 1.25 to 40 uM incubated for 72 hrs by MTT assay; format: functional, cell-based; conditions: dose 1.25-40 µM
PANC-1 [9] = assay: Antiproliferative activity against human PANC-1 cells transfected with PKCbeta1 siRNA assessed as reduction in cell viability at 1.25 to 40 uM incubated for 72 hrs by MTT assay; format: functional, cell-based; conditions: dose 1.25-40 µM
[10] = system: Gemcitabine-resistant PANC-1; assay: Antitumor activity against human Gemcitabine-resistant PANC-1 cells xenografted in male BALB/c nude mouse assessed as reduction in tumor growth at 10 mg/kg, ip administered three times in a week for 20 days relative to control; format: functional; design: scale not given: the % may be the effect or the level left; conditions: time 20 day
[11] = system: Gemcitabine-resistant PANC-1; assay: Antitumor activity against human Gemcitabine-resistant PANC-1 cells xenografted in male BALB/c nude mouse assessed as reduction in tumor growth at 5 mg/kg, ip administered three times in a week for 20 days; format: functional, organism-based; conditions: time 20.0 day

Structure (SMILES) | IC50 (PANC-1 [1]) | IC50 at 72 h [2] | other results
O=C1c2ccccc2N(Cc2ccc(C(F)(F)F)cc2)[C@@H]2c3[nH]c4ccccc4c3CCN12 | 31.5 µM | 50 µM | –
CN1c2ccccc2C(=O)N2CCc3c([nH]c4ccc(O)cc34)[C@H]21 | ≤ 0.05 µM | > 50 µM | IC50 at 72 h [3]: 0.17 µM; IC50 [4]: 0.25 µM; inhibition [5]: inactive
COc1ccc2c(c1)N(C)[C@@H]1c3[nH]c4ccccc4c3CCN1C2=O | 31.6 µM | 3.6 µM | –
CN1c2ccc(F)cc2C(=O)N2CCc3c([nH]c4ccccc34)[C@H]21 | < 0.4 µM | < 0.4 µM | –
Cc1ccc(CN2c3ccccc3C(=O)N3CCc4c([nH]c5ccccc45)[C@H]32)cc1 | 11.3 µM | > 50 µM | –
CN1c2ccccc2C(=O)N2CCc3c(n(Cc4ccc(Cl)cc4)c4ccccc34)[C@H]21 | 44 µM | > 50 µM | –
Cc1cccc2c1N(C)[C@@H]1c3[nH]c4ccccc4c3CCN1C2=O | < 0.4 µM | < 0.4 µM | –
CN1c2ccccc2C(=O)N2CCc3c(n(C(=O)c4ccccc4)c4ccccc34)[C@H]21 | > 50 µM | > 50 µM | –
CC(=O)Oc1ccc2c(c1)c1c(n2Cc2cn(CCNC(=O)CCCC[C@@H]3SC[C@@H]4NC(=O)N[C@@H]43)nn2)C2N(CC1)C(=O)c1ccccc1N2C (some centres not stated) | – | – | Activity [6]: Active
COc1cccc2c1C(=O)N1CCc3c([nH]c4ccccc34)[C@H]1N2C | 12.6 µM | 12.7 µM | –
O=C1c2ccccc2N[C@@H]2c3[nH]c4ccccc4c3CCN12 | > 50 µM | > 50 µM | –
CN1c2ccccc2C(=O)N2CCc3c([nH]c4ccc([N+](=O)[O-])cc34)[C@H]21 | 4.45 µM | > 50 µM | –
C=CCOc1ccc2[nH]c3c(c2c1)CCN1C(=O)c2ccccc2N(C)[C@H]31 | 6.7 µM | > 50 µM | –
CC(=O)Oc1ccc2[nH]c3c(c2c1)CCN1C(=O)c2cc(F)ccc2N(C)[C@H]31 | < 0.4 µM | < 0.4 µM | –
CN1c2ccccc2C(=O)N2CCc3c([nH]c4c([N+](=O)[O-])cc([N+](=O)[O-])cc34)[C@H]21 | 0.93 µM | > 50 µM | IC50 at 72 h [3]: 0.08 µM; IC50 [4]: 1.31 µM; inhibition [5]: inactive
CN1c2ccccc2C(=O)N2CCc3c(n(C)c4ccccc34)[C@H]21 | > 50 µM | > 50 µM | –
Cc1ccc2c(c1)C(=O)N1CCc3c([nH]c4ccccc34)[C@H]1N2C | 2.02 µM | 7.36 µM | –
CN1c2ccccc2C(=O)N2CCc3c([nH]c4ccc(OCc5ccccc5)cc34)[C@H]21 | 10.7 µM | > 50 µM | –
CC(=O)Oc1ccc2[nH]c3c(c2c1)CCN1C(=O)c2cccc(C)c2N(C)[C@H]31 | < 0.4 µM | < 0.4 µM | –
CN1c2ccccc2C(=O)N2CCc3c(n(Cc4ccccc4)c4ccccc34)[C@H]21 | 6.88 µM | 33.7 µM | –
CN1c2ccccc2C(=O)N2CCc3c([nH]c4ccccc34)[C@H]21 | 6.59 µM | > 50 µM | IC50 [5]: 0.151 µM
CN1c2ccccc2C(=O)N2CCc3c([nH]c4ccc(F)cc34)[C@H]21 | 9.32 µM | 4.71 µM | –

Structure (SMILES) | IC50 (PANC-1 [1]) | IC50 at 72 h [2] | other results
CCCn1c2c(c3ccccc31)CCN1C(=O)c3ccccc3N(C)[C@H]21 | 38.4 µM | > 50 µM | –
COc1ccc2[nH]c3c(c2c1)CCN1C(=O)c2ccccc2N(C)[C@H]31 | 11.1 µM | 10.8 µM | –
CN1c2ccc(Cl)cc2C(=O)N2CCc3c([nH]c4ccccc34)[C@H]21 | 1.32 µM | 1.03 µM | –
C#CCOc1ccc2[nH]c3c(c2c1)CCN1C(=O)c2ccccc2N(C)[C@H]31 | 4 µM | > 50 µM | –
Cc1ccc2[nH]c3c(c2c1)CCN1C(=O)c2ccccc2N(C)[C@H]31 | 29.2 µM | > 50 µM | –
CN1c2ccc(Br)cc2C(=O)N2CCc3c([nH]c4ccccc34)[C@H]21 | 2.25 µM | 3.06 µM | –
CN1c2ccccc2C(=O)N2CCc3c([nH]c4ccc(Cl)cc34)[C@H]21 | 31.6 µM | 9.42 µM | –
Cc1ccc(Cn2c3c(c4ccccc42)CCN2C(=O)c4ccccc4N(C)[C@H]32)cc1 | > 50 µM | > 50 µM | –
CCCOc1ccc2[nH]c3c(c2c1)CCN1C(=O)c2ccccc2N(C)[C@H]31 | 19 µM | > 50 µM | –
CN1c2cc(Cl)ccc2C(=O)N2CCc3c([nH]c4ccccc34)[C@H]21 | > 50 µM | > 50 µM | –
COc1cc([C@@H]2c3cc4c(cc3[C@@H](O[C@@H]3O[C@@H]5CO[C@@H](C)O[C@H]5[C@H](O)[C@H]3O)[C@H]3COC(=O)[C@H]23)OCO4)cc(OC)c1O [ETOPOSIDE] | 18.3 µM | > 20 µM | –
Cn1cc(C2=C(c3cn(C4CCN(Cc5ccccn5)CC4)c4ccccc34)C(=O)NC2=O)c2ccccc21 [ENZASTAURIN] | 6.59 µM | – | IC50 at 72 h [3]: 1.33 µM; IC50 [4]: 2.12 µM
COc1ccc2c(c1)C(=O)N1CCc3c([nH]c4ccccc34)[C@H]1N2C | 1.05 µM | 3.33 µM | –
Nc1ccn([C@@H]2O[C@H](CO)[C@@H](O)C2(F)F)c(=O)n1 [GEMCITABINE] | 1.25 µM | – | IC50 at 72 h [3]: 0.04 µM; IC50 [4]: 64.5 µM; Ratio IC50 [7]: 51.61; Activity (PANC-1 [8]): inactive; Activity (PANC-1 [9]): Active; Activity [10]: 72.15%; Activity [11]: inactive
CN1c2ccccc2C(=O)N2CCc3c([nH]c4ccc(OC(=O)c5ccccc5)cc34)[C@H]21 | 0.75 µM | > 50 µM | IC50 at 72 h [3]: 0.14 µM; IC50 [4]: 0.13 µM; inhibition [5]: inactive
CCCCCCn1c2c(c3ccccc31)CCN1C(=O)c3ccccc3N(C)[C@H]21 | 13.7 µM | 37.6 µM | –
O=C1c2ccccc2N(C(=O)C2CCCCC2)C2c3[nH]c4ccccc4c3CCN12 (single isomer, unassigned) | > 50 µM | > 50 µM | –
CCCN1c2ccccc2C(=O)N2CCc3c([nH]c4ccccc34)[C@H]21 | < 0.4 µM | < 0.4 µM | –
O=C1c2ccccc2N(Cc2ccccc2)[C@@H]2c3[nH]c4ccccc4c3CCN12 | > 50 µM | > 50 µM | –
COc1ccc(Cn2c3c(c4ccccc42)CCN2C(=O)c4ccccc4N(C)[C@H]32)cc1 | 47.2 µM | > 50 µM | –
CN1c2cccc(Cl)c2C(=O)N2CCc3c([nH]c4ccccc34)[C@H]21 | 8.8 µM | < 0.4 µM | –
